Source: US20240269158A1, “THERAPEUTIC AGENTS AND METHODS FOR TREATMENT OF BARTONELLOSIS” (THE ADMINISTRATORS OF THE TULANE EDUCATIONAL FUND, priority 2021, published 2024)
Where two headings read alike, the source gives them in different places.

Key:
[1] = tested on: intracellular B. henselae in DH82 cells; assay: DH82 cell-based MBC assay (coculture); parameters: species or system Bartonella henselae (canine DH82 cells); conditions: Bartonella henselae; B. henselae; DH82 cell-based assay; 96 hours; read-out: MBC
Protocol: DH82 are a canine cell line having a macrophage-like morphology. Cells were initially cultured in T75-Flasks (Corning, 430641U) until confluency was reached and were split at a ratio of 1:4 for every 2-3 days. Cells were then seeded into either 24-well cell culture plates (Corning, 3526) for coculture assay or 8-well chamber slides (Millipore #PEGGS0816) for immunofluorescence assays. A total of 50,000 cells were seeded into each well of a 24-well plate or per chamber of an 8-well chamber slide with EMEM with 15% FBS and incubated for 24-48 hours before infections.
(§1) Therapeutic agent stocks were prepared in the following solvents: 10 mg/ml of ceftriaxone (USP), doxycycline (Fisher scientific, D9891-1G), gentamicin (Fisher scientific, 1405-41-0), ampicillin (Fisher scientific, 69-52-3) and azlocillin (Flightpath) in sterile cell culture grade water, whereas 5 mg/ml of azithromycin (Sigma, PZ0007-5MG) was dissolved in sterile cell culture grade DMSO. Antibiotics were then aliquoted and stored at either −80° C. or −20° C. until further use. On the day of assay, these stock concentrations were diluted to 1 mg/ml and 100 μg/ml in the respected bacterial culture media for MIC and cell-free, liquid culture MBC assays. For the DH82 cell-based MBC assay, antibiotics were diluted in EMEM media supplemented with 15% heat inactivated FBS.
Bacteria (B. henselae) that were grown in Grace's insect media, were centrifuged at 7000 rpm for 10 min. The supernatant was removed and washed with 1×PBS for three times. After the washes, pellet was resuspended in EMEM media supplemented with 15% heat inactivated FBS. This bacterial suspension was then added to DH82 cells at a multiplicity of infection (MOI) of 1:50 and incubated for 2 hours. After 2 hours, unbound bacteria were removed by washing the cells with only EMEM media 3 times each 15 min wash. Cells were then incubated with EMEM+15% FBS media at 37° C. with 5% CO2 for 48 hours.
After 48 hrs of incubation, the media was removed from the cells and the therapeutic agents that were diluted in EMEM+15% FBS was added. Each therapeutic agent was diluted at 11 different concentrations (16, 8, 4, 2, 1, 0.5, 0.25, 0.125, 0.062, 0.031, 0.0156 μg/ml), as described above and incubated for 96 hours. […] The bactericidal activity of the therapeutic agents were then evaluated by plating the lysed cells on blood agar plates. Briefly, infected DH82 cells were initially washed for 30 min twice to remove the antibiotics that were added. Later, cells were osmotically lysed by adding 1 ml of sterile ice-cold distilled water and incubated for 5 min on ice. The lysed cells were then plated onto blood agar plates and incubated at 37° C. with 5% CO2 for about 10 days to evaluate the growth of viable B. henselae. This experiment was conducted in duplicates and repeated twice with all 6 antibiotics including 11 different concentrations. The untreated infected cells were used as a positive control and untreated uninfected cells served as a negative control. The CFU counts are presented as average±standard deviation.
To evaluate the bactericidal activity and to determine if these antibiotics could penetrate the eukaryotic […], a new DH82 cell-based coculture system was utilized. […] Uninfected cells stained with primary rabbit B. henselaehyperimmunized polyclonal (primary) and goat anti-rabbit IgG Alexa fluor 594 (secondary) antibodies were used as a negative control. As an isotype control, DH82 cells infected with B. henselae and incubated with primary rabbit IgG were used.

B. vinsonii [2] = assay: Cell-free, liquid culture MBC assay; type: cell-based, B. vinsonii subsp. berkhoffii; conditions: 96 hrs, plated on blood agar, read-out: MBC
Protocol: (§2) The B. henselae strains used were San Antonio 2, 267HO04, a human clinical isolate and B. vinsonii subsp. berkhoffii. Both the bacteria were initially grown on tryptic soy agar (TSA) supplemented with 5% defibrinated sheep blood plates that were either pre-made (Remel, R01198) or homemade, in a humidified atmosphere at 37° C. with 5% CO2 for 7 days. For the preparation of liquid cultures, an individual well-grown colony from the plate was resuspended in 15 ml Falcon tubes containing 3 mL of either Schneider's insect media supplemented with 10% FBS, or Grace's insect media (Gibco, 11605-094) supplemented with 10% FBS, or BAPGM serum-free liquid media. The cultures grew for 7 more days in the atmosphere as above without shaking. The number of viable bacteria was determined by either plating serial dilutions of the culture on plates for CFU or by live/dead staining. Before every experiment, bacteria were mixed well and passed through 22-gauge needle to break large clumps of bacteria.
(§3) Briefly, the bacterial culture that was treated with therapeutic agents for 96 hrs was collected into a 1.5 ml microcentrifuge tubes and centrifuged at 7000 rpm for 10 min. The supernatant was removed, and the bacterial pellet was washed with 1×PBS twice. The bacterial pellet was then resuspended in 100 μL of 1×PBS, plated onto blood agar plates and incubated at 37° C. with 5% CO2 for about 14 days. This assay was repeated three times with all the 6 different antibiotics (azlocillin, azithromycin, ceftriaxone, doxycycline, gentamicin and ampicillin) and at different concentrations.
as §1
(§4) For this assay, both B. henselae and B. vinsonii were grown in Grace's insect media and were tested against all of the 6 antibiotics (ceftriaxone, doxycycline, gentamicin, azithromycin, azlocillin, ampicillin). […] However, ceftriaxone, gentamicin, azithromycin, and azlocillin were all bactericidal and completely eliminated the growth at concentrations below 10 µg/ml. Table 2 provides comparison of MBCs for B. henselae and B. vinsonii strains in cell-free liquid culture medium determined by incubating the bacteria with antibiotics in a 96-well plate and plating on tryptic soy agar supplemented with 5% sheep blood. Additionally, MBC for B. henselae determined by DH82 cell-based assay (right column) is provided.

B. henselae [3] = assay: MIC assay in liquid culture media (OD600); type: cell-based, Bartonella henselae; conditions: Bartonella henselae, read-out: MIC
Protocol: as §2
(§5) Optical density (OD) of 7-day old bacterial liquid culture that was grown from an individual colony was measured using a spectrophotometer (Bio-Rad, SmartSpec 300, 170-2501). Bacterial culture was then diluted down to an OD of 0.1 ? 3×10^8 cfu/ml with the respective media.
(§6) To determine the MIC of the antibiotics and for the visualization of the bacterial growth, a clear 96-well plate was used. Into each well of a 96-well plate, 50 μl of the 0.1 OD bacterial culture and 50 μl of the liquid media containing antibiotics were added to the wells bringing the total volume to 100 μl of 0.05 OD bacteria (CFU ? 1.5×10^7) in each well. Wells containing only bacteria with solvent used in the dilution of the antibiotics served as a positive control to verify the growth of bacteria. As a negative control, wells containing only media and solvents were used. Each concentration of diluted antibiotic was run in 4 replicates to minimize the error rate. The 96-well plate was covered with the lid and incubated at 37° C. with 5% CO2. OD of the culture was read after 48 hrs and 96 hrs using a hybrid multi-mode microplate reader (Biotek, Synergy H4 hybrid reader) at OD600. The assay was repeated three times.
as §1
(§7) The determination of susceptibility to therapeutic agents was performed in liquid culture media. Six different therapeutic agents were tested with multiple different concentrations against B. henselae and B. vinsonii. Therapeutic agent concentrations tested were as follows: Ceftriaxone 0.001, 0.01, 0.1, 0.3, 0.5, 1, 2, and 5 μg/ml; doxycycline 0.001, 0.01, 0.1, 0.3, 0.5, 1, 2, 5, and 10 μg/ml, gentamicin: 0.01, 0.1, 0.3, 0.5, 1, 2, 4, 8, and 16 μg/ml, and azithromycin: 0.001, 0.005, 0.02, 0.1, 0.3, 0.5, 1, 2, 5, and 10 μg/ml, were tested based on previous antibiotic susceptibility studies. The following azlocillin dilutions were included: 0.001, 0.005, 0.01, 0.02, 0.5, 1, 2, and 5 μg/ml. The ampicillin dilutions included were as follows: 0.001, 0.005, 0.01, 0.02, 0.5, 1, 2, 4, and 8 μg/ml. Both the species of Bartonella were susceptible to all the antibiotics that were used in BAPGM and Grace's culture liquid mediums. […]

B. vinsonii [4] = assay: MIC assay in liquid culture media (OD600); type: cell-based, B. vinsonii subsp. berkhoffii; conditions: Grace's insect media, read-out: MIC
Protocol: as §2, §5, §6, §1, §7

[5] = tested on: B. henselae and B. vinsonii; assay: Cell-free MBC assay, summary over both species; type: cell-based, Bartonella; conditions: both species; Grace's insect media
Protocol: as §3, §4

B. henselae [6] = assay: Cell-free, liquid culture MBC assay; type: cell-based, Bartonella henselae; conditions: Bartonella henselae, 96 hrs, plated on blood agar, read-out: MBC
Protocol: as §2, §3, §1
For this assay, both B. henselae and B. vinsonii were grown in Grace's insect media and were tested against all of the 6 antibiotics (ceftriaxone, doxycycline, gentamicin, azithromycin, azlocillin, ampicillin).

B. henselae [7] = conditions: cited from earlier work
B. henselae [8] = conditions: E-test methodology or agar dilution method; cited from earlier work

Compound	MBC [1]	MBC (B. vinsonii [2])	MIC (B. henselae [3]; Grace's insect media)	MIC (B. vinsonii [4])	concentration that did not completely inhibit the growth of bacteria [5]	MBC (B. henselae [6])	MIC (B. henselae [3]; BAPGM)	MIC (B. henselae [3]; Schneider's insect medium)	activity against growing bacterial culture (B. henselae [7])	activity against stationary phase B. henselae (B. henselae [7])	inhibition in the growth of B. henselae in vitro (B. henselae [8])
CC1(C)S[C@@H]2[C@H](NC(=O)[C@H](N)c3ccccc3)C(=O)N2[C@H]1C(=O)O [Ampicillin, ampicillin]	> 16 µg/mL	> 8 µg/mL	0.02 to 0.1 µg/mL	0.01 to 0.02 µg/mL	> 8 µg/mL	> 8 µg/mL					
C[C@H]1c2cccc(O)c2C(=O)C2=C(O)[C@]3(O)C(=O)C(C(N)=O)=C(O)[C@@H](N(C)C)[C@@H]3[C@@H](O)[C@@H]21 [Doxycycline, doxycycline]	> 16 µg/mL	> 10 µg/mL	0.01 to 0.1 µg/mL	0.01 to 0.1 µg/mL	> 10 µg/mL	> 10 µg/mL	0.01 to 0.1 µg/mL	> 0.3 µg/mL			
O=C(O)c1cn(C2CC2)c2cc(N3CCNCC3)c(F)cc2c1=O [ciprofloxacin]									effective	very poor activity	
CC[C@H]1OC(=O)[C@H](C)[C@@H](O[C@H]2C[C@@](C)(OC)[C@@H](O)[C@H](C)O2)[C@H](C)[C@@H](O[C@@H]2O[C@H](C)C[C@H](N(C)C)[C@H]2O)[C@](C)(O)C[C@@H](C)C(=O)[C@H](C)[C@@H](O)[C@]1(C)O [crythromycin]									effective	very poor activity	
CO[C@H]1/C=C/O[C@@]2(C)Oc3c(C)c(O)c4c(O)c(c(/C=N/N5CCN(C)CC5)c(O)c4c3C2=O)NC(=O)/C(C)=C\C=C\[C@H](C)[C@H](O)[C@@H](C)[C@@H](O)[C@@H](C)[C@H](OC(C)=O)[C@@H]1C [rifampin]									effective	very poor activity	Inhibition in the growth
